Results from paper PMC9558053, “Development of a novel high-throughput screen for the identification of new inhibitors of protein S-acylation” (The Journal of Biological Chemistry, 2022).

Assays:
[1] = molecular target: T1, human zDHHC7 (Homo sapiens, UniProt Q9NXF8); test: PSD95-mCHERRY S-acylation in HEK293T cells co-expressing zDHHC7; format: cell-based; details: 25 μM
T1 construct: expressed in transfected cells; host or cells: HEK293T
T1 sequence (Q9NXF8 1-308): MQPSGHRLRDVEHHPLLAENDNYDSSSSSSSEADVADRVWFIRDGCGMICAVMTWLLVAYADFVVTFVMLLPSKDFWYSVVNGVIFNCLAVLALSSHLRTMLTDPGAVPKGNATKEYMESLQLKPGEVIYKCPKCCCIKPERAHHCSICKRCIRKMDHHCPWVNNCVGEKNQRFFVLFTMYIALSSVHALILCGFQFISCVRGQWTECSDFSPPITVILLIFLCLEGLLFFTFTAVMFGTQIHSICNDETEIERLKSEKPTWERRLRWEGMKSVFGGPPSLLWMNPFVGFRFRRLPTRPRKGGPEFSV
Text: (§1) PSD95 (postsynaptic density protein 95) is a major S-acylated protein that has a critical role in the maturation of excitatory neurons and in synaptic plasticity ([46], [47]). PSD95 can be S-acylated by zDHHC2, zDHHC3, zDHHC7, and zDHHC15 ([6]). […] We therefore tested the effects of TTZ-1 and TTZ-2 on the S-acylation of PSD95 mediated by zDHHC2, zDHHC3, zDHHC7, and zDHHC15. […] In contrast, zDHHC3 and zDHHC7 activities toward PSD95 were unaffected by TTZ-1 and TTZ-2, mirroring the data obtained with GFP-SNAP25 as a substrate.
(§2) Figure 9 Activity of TTZ-1 and TTZ-2 against PSD95 S-acylation mediated by human zDHHC2, zDHHC3, zDHHC7, and zDHHC15 expressed in mammalian cells. HEK293T cells were transfected with a plasmid encoding PSD95-mCHERRY together with either a control plasmid pEF-BOS-HA (pEF) or a plasmid encoding either HA-tagged human zDHHC2 (zD2), zDHHC3 (zD3), zDHHC7 (zD7), or zDHHC15 (zD15) for 24 h. Cells were then preincubated for 4 h with TTZ-1 or TTZ-2 (25 μM final) or DMSO control before metabolic labeling with 100 μM C16:0-azide for 4 h. Cells were lysed, and proteins having incorporated C16:0-azide were labeled by click chemistry with an alkyne-IR800 dye. […] The data were quantified, and the graphs below each set of membranes show mean ± SEM of normalized S-acylation of PSD95-mCHERRY (click signal/RFP signal). […]

[2] = molecular target: T2, human zDHHC15 (Homo sapiens, UniProt Q96MV8); test: PSD95-mCHERRY S-acylation in HEK293T cells co-expressing zDHHC15; format: cell-based; details: 25 μM
T2 construct: expressed in transfected cells; host or cells: HEK293T
T2 sequence (Q96MV8 1-337): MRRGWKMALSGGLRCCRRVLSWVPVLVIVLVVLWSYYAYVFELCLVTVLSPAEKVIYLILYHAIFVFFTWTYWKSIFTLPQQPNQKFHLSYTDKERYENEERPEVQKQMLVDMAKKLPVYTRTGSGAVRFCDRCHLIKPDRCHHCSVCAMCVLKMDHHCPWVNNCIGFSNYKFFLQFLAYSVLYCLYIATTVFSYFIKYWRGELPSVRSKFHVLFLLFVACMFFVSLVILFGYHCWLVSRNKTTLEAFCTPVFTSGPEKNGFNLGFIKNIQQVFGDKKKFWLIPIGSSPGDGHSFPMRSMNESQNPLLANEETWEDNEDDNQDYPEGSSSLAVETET
Text: as §1, §2

Compound	PSD95-mCHERRY S-acylation by zDHHC7 [1]	PSD95-mCHERRY S-acylation by zDHHC15 [2]
CCCCCCCOc1ccc(C(=O)Nc2cccc3c2OC(c2nnn[nH]2)CN3)cc1 (stereo not shown) [TTZ-1, N-(2-(1H-Tetrazol-5-yl)-3,4-dihydro-2H-benzo[b][1,4]oxazin-8-yl)-4-(heptyloxy)benzamide]	unaffected	significantly inhibited
O=C(Nc1cccc2c1OC(c1nnn[nH]1)CN2)c1ccc(OCCCCc2ccccc2)cc1 (stereo not shown) [TTZ-2, N-(2-(1H-Tetrazol-5-yl)-3,4-dihydro-2H-benzo[b][1,4]oxazin-8-yl)-4-(4-phenylbutoxy)benzamide]	unaffected	significantly inhibited
